From the CheMixHub ionic liquid set

Assay: xn = mol fraction of the nth substance listed

Cn1cc[n+](CCO)c1.O=C([O-])C(F)(F)C(F)(F)C(F)(F)C(F)(F)F + O
101 kPa
Details | electrical conductivity, 298.15 K [S/m] | viscosity, 298.15 K [mPa·s] | viscosity, 308.15 K [mPa·s] | viscosity, 318.15 K [mPa·s]
x1 = 0.01954 | 1.86 | 2.373 | 1.881 | 1.521
x1 = 0.0234 | 1.85 | 2.72 | 2.129 | 1.713
x1 = 0.02752 | 1.82 | 3.1 | 2.403 | 1.914
x1 = 0.02972 | 1.79 | 3.29 | 2.55 | 2.027
x1 = 0.03222 | 1.76 | 3.67 | 2.8 | 2.204
x1 = 0.03772 | 1.67 | 4.35 | 3.3 | 2.59
x1 = 0.04078 | 1.61 | 4.62 | 3.5 | 2.73
x1 = 0.04409 | 1.55 | 4.98 | 3.72 | 2.87
x1 = 0.05152 | 1.42 | 6.18 | 4.57 | 3.51
x1 = 0.05575 | 1.35 | 6.8 | 5 | 3.8
x1 = 0.0602 | 1.27 | 7.62 | 5.55 | 4.2
x1 = 0.06471 | 1.2 | 8.23 | 5.97 | 4.49
x1 = 0.07633 | 1.04 | 9.67 | 6.91 | 5.16
x1 = 0.082 | 0.97 | 10.72 | 7.6 | 5.62
x1 = 0.08895 | 0.89 | 12.37 | 8.65 | 6.3
x1 = 0.09727 | 0.81 | 13.43 | 9.39 | 6.84
x1 = 0.1069 | 0.73 | 15.01 | 10.41 | 7.54
x1 = 0.1275 | 0.6 | 18.85 | 12.87 | 9.24
x1 = 0.1399 | 0.54 | 22.47 | 15.15 | 10.73
x1 = 0.1574 | 0.465 | 26.8 | 17.82 | 12.47
x1 = 0.1727 | 0.415 | 29.6 | 19.6 | 13.63
x1 = 0.2189 | 0.309 | 38.1 | 24.8 | 16.97
x1 = 0.2539 | 0.257 | 43.9 | 28.2 | 19.16
x1 = 0.2952 | 0.213 | 52.2 | 33.1 | 22.22
x1 = 0.3469 | 0.173 | 64.4 | 40.2 | 26.6
x1 = 0.4176 | 0.134 | 86.6 | 52.8 | 34.3
x1 = 0.5205 | 0.097 | 131.5 | 77.3 | 48.9
x1 = 0.7217 | 0.053 | 232 | 129.6 | 78.3
x1 = 1 | 0.0315 | 713 | 351 | 190.8

CCn1cc[n+](CC)c1.O=S(=O)([N-]S(=O)(=O)C(F)(F)F)C(F)(F)F + O
100 kPa, x2 = 0.2772
Details | viscosity [mPa·s]
318.15 K | 11.04
358.15 K | 4.96

CCCCCCCCOS(=O)(=O)[O-].CC[n+]1ccn(C)c1 + O + O=S(=O)([O-])[O-].[K+].[K+]
101 kPa, frequency 0.0005 MHz, x2 = 0.7992, x3 = 0.000271
Details | electrical conductivity [S/m]
283.15 K | 0.565
285.15 K | 0.611
288.15 K | 0.685
291.15 K | 0.763
293.15 K | 0.818
298.15 K | 0.965
303.15 K | 1.13
313.15 K | 1.49
323.15 K | 1.91
333.15 K | 2.43
343.15 K | 2.94
353.15 K | 3.49
358.15 K | 3.81
363.15 K | 4.13

101 kPa, x2 = 0.7992, x3 = 0.000271
Details | viscosity [mPa·s]
298.15 K | 70.4
303.15 K | 54.1
308.15 K | 42.26
318.15 K | 26.98
328.15 K | 18.12
338.15 K | 12.69

OCCCCCO + C[N+](C)(C)CCO.O=S(=O)([N-]S(=O)(=O)C(F)(F)F)C(F)(F)F
Details | viscosity [mPa·s]
333.15 K, 101 kPa, x1 = 1 | 20.3

CCC[P+](c1ccccc1)(c1ccccc1)c1ccccc1.[Br-] + OCCO
100 kPa, x2 = 0.9756
Details | viscosity [mPa·s]
303.15 K | 20.5
313.15 K | 17.1
323.15 K | 14
333.15 K | 11.6
343.15 K | 10
353.15 K | 9.1

CCCCCC[n+]1ccn(C)c1.[Br-] + OC[C@H]1O[C@@](CO)(O[C@H]2O[C@H](CO)[C@@H](O)[C@H](O)[C@H]2O)[C@@H](O)[C@@H]1O + O
viscosity [mPa·s], 100 kPa
Details | 288.15 K | 298.15 K | 308.15 K | 318.15 K
x2 = 0.0009263, x1 = 0.001797 | 1.271 | 0.986 | 0.785 | 0.651
x2 = 0.000945, x1 = 0.003588 | 1.33 | 1.022 | 0.827 | 0.683
x2 = 0.001856, x1 = 0.001795 | 1.334 | 1.034 | 0.826 | 0.681
x2 = 0.001901, x1 = 0.003584 | 1.403 | 1.07 | 0.87 | 0.711
x2 = 0.001946, x1 = 0.005366 | 1.495 | 1.142 | 0.891 | 0.74
x2 = 0.002732, x1 = 0.001794 | 1.394 | 1.074 | 0.859 | 0.711
x2 = 0.002803, x1 = 0.003581 | 1.468 | 1.123 | 0.904 | 0.74
x2 = 0.002858, x1 = 0.005362 | 1.568 | 1.191 | 0.949 | 0.78
x2 = 0.003653, x1 = 0.001792 | 1.453 | 1.124 | 0.897 | 0.735
x2 = 0.003711, x1 = 0.003578 | 1.538 | 1.173 | 0.941 | 0.775
x2 = 0.003775, x1 = 0.005357 | 1.637 | 1.245 | 0.99 | 0.807
x2 = 0.004453, x1 = 0.003575 | 1.596 | 1.222 | 0.975 | 0.805
x2 = 0.004552, x1 = 0.005352 | 1.699 | 1.293 | 1.023 | 0.834
x2 = 0.005421, x1 = 0.001789 | 1.601 | 1.229 | 0.975 | 0.793
x2 = 0.005541, x1 = 0.003571 | 1.672 | 1.287 | 1.018 | 0.835
x2 = 0.005596, x1 = 0.005347 | 1.794 | 1.365 | 1.078 | 0.875
x2 = 0.006166, x1 = 0.001788 | 1.649 | 1.272 | 1.01 | 0.82
x2 = 0.006277, x1 = 0.003569 | 1.745 | 1.342 | 1.061 | 0.868
x2 = 0.006372, x1 = 0.005343 | 1.862 | 1.416 | 1.114 | 0.906
x2 = 0.007317, x1 = 0.001786 | 1.761 | 1.347 | 1.059 | 0.863
x2 = 0.007401, x1 = 0.005337 | 1.984 | 1.498 | 1.184 | 0.952
x2 = 0.007611, x1 = 0.003564 | 1.874 | 1.438 | 1.13 | 0.917
x2 = 0.00788, x1 = 0.001785 | 1.826 | 1.395 | 1.088 | 0.894
x2 = 0.008047, x1 = 0.003562 | 1.908 | 1.463 | 1.152 | 0.928
x2 = 0.008846, x1 = 0.005329 | 2.121 | 1.595 | 1.25 | 1.009

CCCC[n+]1ccn(C)c1.COS(=O)(=O)[O-] + O
viscosity [mPa·s], 101 kPa
Details | 283.15 K | 293.15 K | 303.15 K | 313.15 K | 323.15 K | 333.15 K | 343.15 K
x2 = 0.0004 | 527 | 273.8 | 153.5 | 93.1 | 60.24 | 41.07 | 29.3
x2 = 0.0999 | 432 | 229.3 | 132.8 | 82.6 | 54.53 | 37.8 | 27.72
x2 = 0.194 | 356.2 | 193.6 | 114.5 | 72.55 | 48.65 | 34.25 | 25.14
x2 = 0.3979 | 182.1 | 104.3 | 64.51 | 42.47 | 29.48 | 21.44 | 16.88
x2 = 0.6025 | 63.13 | 38.93 | 25.65 | 17.84 | 12.97 | 9.806 | 8.289
x2 = 0.8005 | 19.72 | 13.01 | 9.056 | 6.609 | 5.006 | 3.929 | 3.175
x2 = 0.8993 | 8.179 | 5.646 | 4.113 | 3.137 | 2.483 | 2.029 | 1.707
